The structures appear in SMILES notation. pEC50: −log10 of the molar value. Calls of active or inactive are those of the source. The rule behind the calls is not given here.

Type in all cases: functional, cell-based
Test [1] deals with LX-2. Nature of the test: Antifibrotic activity against human LX-2 cells overexpressing human Adenosine receptor A2a assessed as downregulation of alpha-SMA expression at 10 uM incubated for 18 hrs by Western blotting analysis. (In general: Immunoblotting shows a protein as a band on a membrane.)
Test [2] concerns LX-2. The experiment in a line: Antifibrotic activity against human LX-2 cells overexpressing human Adenosine receptor A2a assessed as downregulation of COL1A1 expression at 10 uM incubated for 18 hrs by Western blotting analysis.
In test [3] the test system is LX-2. The experiment in a line: Antifibrotic activity against human LX-2 cells overexpressing human Adenosine receptor A2a assessed as downregulation of PKA phosphorylation at Thr197 residue at 10 uM incubated for 18 hrs by Western blotting analysis.
In test [4] the test system is LX-2. Nature of the test: Antifibrotic activity against human LX-2 cells overexpressing human Adenosine receptor A2a assessed as downregulation of fibronectin expression at 10 uM incubated for 18 hrs by Western blotting analysis.
The target in the next test is Adenosine receptor A2a (Homo sapiens, UniProt P29274). The experiment in a line: Antagonist activity at human Adenosine receptor A2a transfected in HEK293 cells co-expressing CRE-luciferase plasmid assessed as reduction in CRE promoter activity by measuring effective concentration incubated for 18 hrs by luciferase based CRE reporter assay. On the technique in general: A reporter such as luciferase makes a cellular process visible.
Chain of Adenosine receptor A2a (P29274 whole entry): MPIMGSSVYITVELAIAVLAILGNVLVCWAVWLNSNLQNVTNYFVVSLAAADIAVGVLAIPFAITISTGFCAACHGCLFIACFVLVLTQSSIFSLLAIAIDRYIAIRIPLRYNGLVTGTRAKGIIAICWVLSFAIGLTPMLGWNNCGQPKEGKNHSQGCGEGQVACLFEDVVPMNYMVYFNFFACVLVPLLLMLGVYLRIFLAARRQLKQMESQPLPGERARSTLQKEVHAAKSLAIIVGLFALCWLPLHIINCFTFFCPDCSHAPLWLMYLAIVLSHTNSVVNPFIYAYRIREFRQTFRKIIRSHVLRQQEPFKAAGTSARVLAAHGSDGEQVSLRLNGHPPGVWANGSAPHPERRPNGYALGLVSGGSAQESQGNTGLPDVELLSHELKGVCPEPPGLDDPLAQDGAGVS

As to `CNc1nc(C#Cc2ccccc2)nc2c1ncn2Cc1cc(OC)c(OC)c(OC)c1`, the result in the test with LX-2 [1], in the test with LX-2 [2], with LX-2 [3] and with LX-2 [4] was inactive.

In the case of `CNc1nc(C#Cc2ccccc2)nc2c1ncn2Cc1ccccc1`, the pEC50 at Adenosine receptor A2a was 4.84. The result in the test with LX-2 [1], in the test on LX-2 [2], in the test on LX-2 [3] and in the test with LX-2 [4] was Active.

One may read the pEC50 as the EC50 on a negative log10 scale, so that one unit is a factor of ten.

For the origin of these results see ChEMBL document CHEMBL5614411, “Exploring novel A2AAR antagonists: Design, synthesis, and evaluation of 2,6,9-trisubstituted purine derivatives as promising antifibrotic agents” (Bioorg Med Chem, 2024).
